According to patent publication US20250009745A1, “CDK INHIBITOR” (SHANGHAI QILU PHARMACEUTICAL RESEARCH AND DEVELOPMENT …, priority 2021, published 2025):

Experiments:
Assay in all cases: CDK enzymology experiment in vitro, capillary mobility shift assay (MSA)
Assay type in all cases: biochemical
[1] = molecular target: T1, CDK6 (Homo sapiens, UniProt Q00534); conditions: read-out: CDK6 (nM) inhibitory IC50
T1 construct: purchased Carna Company
Method: (§1) CDK1/CDK2/CDK4/CDK6/CDK7/CDK9 were purchased from Carna Company; Carliper substrate CTD3/substrate 18/substrate 8 were purchased from Gil Biochemical Company; Dinaciclib/Palbociclib were purchased from Selleckchem Company; DMSO was purchased from Sigma Company; 384-well plates were purchased from Corning Company.
• (1) Preparation of 1×Kinase buffer. • (2) Preparation of compound concentration gradient: Test concentration of the test compound was started at 1 μM, 10 μM or 30 μM, 3-fold dilution, 10 concentrations, detected in duplicate. […] Liquid handler Echo 550 was used to transfer 250 nL of 100-fold final concentration of the compound to the target plate 384-well plate. […] The 384-well plate was centrifuged at 1000 rpm for 30 seconds, and shaken to mix uniformly. • (10) The conversion rate was read with Caliper EZ Reader.
(§2) Where, conversion %_sample is the readings of conversion rate of the sample; conversion %_min: the average value of negative control wells, representing the readings of conversion rate of wells without enzyme activity; conversion %_max: the average value of positive control wells, representing the readings of conversion rate of wells without compound inhibition.
(§3) Taking the log value of the concentration as the X-axis, and the percentage inhibition rate as the Y-axis, the dose-effect curve was fitted using the log(inhibitor) vs. response—Variable slope of the analysis software GraphPad Prism 5 so as to obtain the IC50 value of each compound on the enzyme activity.
(§4) Y=Bottom+(Top−Bottom)/(1+10^((Log IC50−X)*HillSlope)). Calculation formula: […]

[2] = molecular target: T2, CDK2 (Homo sapiens, UniProt P24941); conditions: read-out: CDK2 (nM) inhibitory IC50
T2 construct: purchased Carna Company
Method: as §1
(§5) • (1) Preparation of 1×Kinase buffer. • (2) Preparation of compound concentration gradient: Test concentration of the test compound was started at 1 μM, 10 μM or 30 μM, 3-fold dilution, 10 concentrations, detected in duplicate. The test compound was diluted to a 100-fold final concentration with 100% DMSO solution in a 384 source plate. Liquid handler Echo 550 was used to transfer 250 nL of 100-fold final concentration of the compound to the target plate 384-well plate. […] The 384-well plate was centrifuged at 1000 rpm for 30 seconds, and shaken to mix uniformly. • (10) The conversion rate was read with Caliper EZ Reader.
as §2, §3, §4

[3] = molecular target: T3, CDK4 (Homo sapiens, UniProt P11802); conditions: read-out: CDK4 (nM) inhibitory IC50
T3 construct: purchased Carna Company
T3 sequence (P11802 whole entry): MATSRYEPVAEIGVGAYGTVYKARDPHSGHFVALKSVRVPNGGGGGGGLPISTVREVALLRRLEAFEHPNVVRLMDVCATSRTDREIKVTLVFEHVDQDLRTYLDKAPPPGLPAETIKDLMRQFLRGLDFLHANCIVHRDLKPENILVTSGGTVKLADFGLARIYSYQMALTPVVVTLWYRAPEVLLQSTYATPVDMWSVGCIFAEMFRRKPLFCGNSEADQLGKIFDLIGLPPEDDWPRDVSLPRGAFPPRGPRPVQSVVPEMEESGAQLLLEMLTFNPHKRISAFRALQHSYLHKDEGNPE
T3 sequence (P30281 whole entry partner): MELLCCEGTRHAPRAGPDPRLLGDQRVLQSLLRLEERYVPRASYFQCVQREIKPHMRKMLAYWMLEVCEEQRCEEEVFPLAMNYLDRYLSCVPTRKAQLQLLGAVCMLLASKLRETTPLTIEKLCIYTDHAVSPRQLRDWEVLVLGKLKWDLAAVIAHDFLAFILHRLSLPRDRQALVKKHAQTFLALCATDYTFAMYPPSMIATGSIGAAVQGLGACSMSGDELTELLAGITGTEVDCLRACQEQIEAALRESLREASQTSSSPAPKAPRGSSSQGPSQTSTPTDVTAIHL
Method: as §1, §5, §2, §3, §4

T1 sequence (Q00534 whole entry): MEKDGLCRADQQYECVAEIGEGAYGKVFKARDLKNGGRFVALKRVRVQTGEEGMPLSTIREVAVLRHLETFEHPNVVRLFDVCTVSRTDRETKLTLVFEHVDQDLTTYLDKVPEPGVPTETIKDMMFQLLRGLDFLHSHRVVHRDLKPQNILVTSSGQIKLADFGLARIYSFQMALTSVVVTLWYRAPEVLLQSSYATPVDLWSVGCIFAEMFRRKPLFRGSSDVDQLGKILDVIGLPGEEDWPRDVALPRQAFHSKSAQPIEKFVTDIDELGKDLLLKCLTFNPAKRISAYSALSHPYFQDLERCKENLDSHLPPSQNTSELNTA
T1 sequence (P30281 whole entry partner): as the sequence (P30281 whole entry partner) above

Row | IC50 [1] [nM] | IC50 [2] [nM] | IC50 [3] [nM] | Compound
1 | 0.5 to 2.5 | 2.5 to 10 | 2.5 to 10 | N#Cc1cnc(NC2CCN(S(=O)(=O)c3ccc(C4=CCNCC4)cc3)CC2)nc1N[C@H]1CCOC1 [Compound 92]
2 | 0.5 to 2.5 | 0.5 to 2.5 | 2.5 to 10 | O=S(=O)(c1ccc(C2=CCNCC2)cc1)N1CCC(Nc2ncc(C(F)(F)F)c(N[C@H]3CCOC3)n2)CC1 [Compound 93]
3 | 10 to 50 | 0.5 to 2.5 | 2.5 to 10 | N#Cc1cnc(NC2CCN(S(=O)(=O)c3ccc(N4CCOCC4)cc3)CC2)nc1NC1CCCC1 [Compound 94]
4 | 0.5 to 2.5 | 0.5 to 2.5 | 0.5 to 2.5 | N#Cc1cnc(NC2CCN(S(=O)(=O)c3ccc(C4CCNCC4)cc3)CC2)nc1NC1CCCC1 [Compound 101]
5 | 0.5 to 2.5 | 0.5 to 2.5 | 2.5 to 10 | N#Cc1cnc(NC2CCN(S(=O)(=O)c3ccc(N4CCNC(=O)C4)cc3)CC2)nc1NC1CCCC1 [Compound 103]
6 | 0.5 to 2.5 | 0.5 to 2.5 | 2.5 to 10 | N#Cc1cnc(NC2CCN(S(=O)(=O)c3ccc(C4=CCNCC4)cc3)CC2)nc1O[C@H]1CCOC1 [Compound 104]
7 | 0.5 to 2.5 | < 0.5 | 0.5 to 2.5 | N#Cc1cnc(NC2CCN(S(=O)(=O)c3ccc(N4CCC(O)CC4)cc3)CC2)nc1NC1CCCC1 [Compound 107]
8 | 0.5 to 2.5 | 0.5 to 2.5 | 0.5 to 2.5 | Cn1cc(S(=O)(=O)N2CCC(Nc3ncc(C#N)c(NC4(C)CCCC4)n3)CC2)cn1 [Compound 118]
9 | 0.5 to 2.5 | < 0.5 | 0.5 to 2.5 | O=S(=O)(c1ccc(C2=CCNCC2)c(F)c1)N1CCC(Nc2ncc(C(F)(F)F)c(O[C@H]3CCOC3)n2)CC1 [Compound 121]
10 | 0.5 to 2.5 | < 0.5 | 0.5 to 2.5 | O=S(=O)(c1ccc(C2CCNCC2)cc1)N1CCC(Nc2ncc(C(F)(F)F)c(O[C@H]3CCOC3)n2)CC1 [Compound 130]
11 | 0.5 to 2.5 | 0.5 to 2.5 | 0.5 to 2.5 | N#Cc1cnc(NC2CCN(S(=O)(=O)c3ccc(C4=CCNCC4)cc3)CC2)nc1NC1CCCC1(F)F (stereo not drawn) [Compound 135]
12 | 0.5 to 2.5 | 0.5 to 2.5 | 2.5 to 10 | O=S(=O)(c1ccc(C2=CCNCC2)cc1)N1CCC(Nc2ncc(C(F)(F)F)c(NC3CCCC3(F)F)n2)CC1 (stereo not drawn) [Compound 136]
13 | 0.5 to 2.5 | 0.5 to 2.5 | 0.5 to 2.5 | O=S(=O)(c1ccc(C2CCNCC2)cc1)N1CCC(Nc2ncc(C(F)(F)F)c(NC3CCCC3(F)F)n2)CC1 (stereo not drawn) [Compound 137]
14 | 0.5 to 2.5 | 0.5 to 2.5 | 0.5 to 2.5 | N#Cc1cnc(NC2CCN(S(=O)(=O)c3ccc(C4CCNCC4)cc3)CC2)nc1NC1CCCC1(F)F (stereo not drawn) [Compound 138]
15 | 0.5 to 2.5 | < 0.5 | 0.5 to 2.5 | O=S(=O)(c1ccc(C2CCNC2)cc1)N1CCC(Nc2ncc(C(F)(F)F)c(O[C@H]3CCOC3)n2)CC1 (stereo partly drawn) [Compound 145]
16 | 0.5 to 2.5 | 0.5 to 2.5 | 0.5 to 2.5 | O=S(=O)(c1ccc(C23CCNCC2C3)cc1)N1CCC(Nc2ncc(C(F)(F)F)c(O[C@H]3CCOC3)n2)CC1 (stereo partly drawn) [Compound 159]
17 | 0.5 to 2.5 | < 0.5 | 0.5 to 2.5 | Cc1nnc(-c2ccc(S(=O)(=O)N3CCC(Nc4ncc(C(F)(F)F)c(O[C@H]5CCOC5)n4)CC3)cc2)o1 [Compound 161]
18 | 0.5 to 2.5 | < 0.5 | 0.5 to 2.5 | O=S(=O)(c1ccc(C2=CCNCC2)nc1)N1CCC(Nc2ncc(C(F)(F)F)c(O[C@H]3CCOC3)n2)CC1 [Compound 173]
19 | 0.5 to 2.5 | < 0.5 | 0.5 to 2.5 | O=S(=O)(c1ccc(C2=CCNCC2)cn1)N1CCC(Nc2ncc(C(F)(F)F)c(O[C@H]3CCOC3)n2)CC1 [Compound 176]

Further lines, the compound ahead of its results:

Row | Compound | IC50 [1] [nM] | IC50 [2] [nM] | IC50 [3] [nM]
20 | O=S(=O)(c1cnn(C2CCNCC2)c1)N1CCC(Nc2ncc(C(F)(F)F)c(O[C@H]3CCOC3)n2)CC1 [Compound 119] | 0.5 to 2.5 | < 0.5 | 0.5 to 2.5
21 | Nc1ccc(S(=O)(=O)N2CCC(Nc3ncc(C(F)(F)F)c(O[C@H]4CCOC4)n3)CC2)cn1 [Compound 123] | 10 to 50 | < 0.5 | 2.5 to 10
22 | O=S(=O)(c1ccc(N2CC[C@@H](O)C2)cc1)N1CCC(Nc2ncc(C(F)(F)F)c(O[C@H]3CCOC3)n2)CC1 [Compound 140] | 0.5 to 2.5 | 0.5 to 2.5 | 0.5 to 2.5
23 | N#CC1CCN(c2ccc(S(=O)(=O)N3CCC(Nc4ncc(C(F)(F)F)c(O[C@H]5CCOC5)n4)CC3)cc2)CC1 [Compound 143] | 10 to 50 | 0.5 to 2.5 | 2.5 to 10
24 | Cc1cc(S(=O)(=O)N2CCC(Nc3ncc(C(F)(F)F)c(O[C@H]4CCOC4)n3)CC2)ccc1C1CCNCC1 [Compound 155] | 0.5 to 2.5 | < 0.5 | 0.5 to 2.5
25 | CN(C)CCn1cc(S(=O)(=O)N2CCC(Nc3ncc(C(F)(F)F)c(O[C@H]4CCOC4)n3)CC2)cn1 [Compound 157] | 10 to 50 | < 0.5 | 2.5 to 10
26 | O=S(=O)(c1ccc(C2CNC2)c(F)c1)N1CCC(Nc2ncc(C(F)(F)F)c(O[C@H]3CCOC3)n2)CC1 [Compound 160] | 0.5 to 2.5 | 0.5 to 2.5 | 2.5 to 10
27 | O=S(=O)([C@@H]1CCCNC1)N1CCC(Nc2ncc(C(F)(F)F)c(NC3CCCC3)n2)CC1 [Compound 162] | 10 to 50 | 2.5 to 10 | 2.5 to 10
28 | O=S(=O)([C@H]1CCCNC1)N1CCC(Nc2ncc(C(F)(F)F)c(NC3CCCC3)n2)CC1 [Compound 163] | 0.5 to 2.5 | 2.5 to 10 | 2.5 to 10
29 | O=S(=O)(c1ccc(N2CCNC(C(F)(F)F)C2)nc1)N1CCC(Nc2ncc(C(F)(F)F)c(O[C@H]3CCOC3)n2)CC1 (stereo partly drawn) [Compound 167] | 0.5 to 2.5 | 0.5 to 2.5 | 0.5 to 2.5
30 | C[C@H]1CN(c2ccc(S(=O)(=O)N3CCC(Nc4ncc(C(F)(F)F)c(O[C@H]5CCOC5)n4)CC3)cn2)C[C@H](C)N1 [Compound 170] | 0.5 to 2.5 | < 0.5 | 0.5 to 2.5
31 | Cc1cc(S(=O)(=O)N2CCC(Nc3ncc(C(F)(F)F)c(O[C@H]4CCOC4)n3)CC2)ccc1N1CCNCC1 [Compound 171] | 0.5 to 2.5 | < 0.5 | 0.5 to 2.5
32 | O=S(=O)(c1ccc(N2CCNCC2)c(F)c1)N1CCC(Nc2ncc(C(F)(F)F)c(O[C@H]3CCOC3)n2)CC1 [Compound 172] | 0.5 to 2.5 | 0.5 to 2.5 | 0.5 to 2.5
33 | O=S(=O)(c1ccc(C2CCNCC2)nc1)N1CCC(Nc2ncc(C(F)(F)F)c(O[C@H]3CCOC3)n2)CC1 [Compound 174] | 0.5 to 2.5 | < 0.5 | 0.5 to 2.5
34 | Cc1cc(S(=O)(=O)N2CCC(Nc3ncc(C(F)(F)F)c(O[C@H]4CCOC4)n3)CC2)cnc1N1CCNCC1 [Compound 175] | 0.5 to 2.5 | < 0.5 | 0.5 to 2.5
35 | O=S(=O)(c1ccc(C2CCNCC2)cn1)N1CCC(Nc2ncc(C(F)(F)F)c(O[C@H]3CCOC3)n2)CC1 [Compound 177] | 0.5 to 2.5 | < 0.5 | 0.5 to 2.5
36 | O=S(=O)(c1ccc(N2CCNCC2)cn1)N1CCC(Nc2ncc(C(F)(F)F)c(O[C@H]3CCOC3)n2)CC1 [Compound 178] | 0.5 to 2.5 | < 0.5 | 0.5 to 2.5
37 | O=S(=O)(c1ccc(N2CC3CC(C2)N3)cc1)N1CCC(Nc2ncc(C(F)(F)F)c(O[C@H]3CCOC3)n2)CC1 [Compound 179] | 0.5 to 2.5 | < 0.5 | 0.5 to 2.5
